Columns and labels:
[1] = cited from earlier work; for Solubility Xxx: free amino acid, CRC Handbook of Chemistry and Physics; for solubility: prior art values, background
[2] = tested on: antibody producing Chinese Hamster Ovary (CHO) cells (Subclone DG44); experiment: Experiment 3: cell growth (VCD) in TC-42 media, L-valine or L-isoleucine replaced by lysyl dipeptides; type: cell-based; set-up: Viable cell densities (VCD) / maximum cell densities (max VCD): unit: 10^6 cells/ml
Description: (§1) The influence of the L-lysine dipeptides on the growth of antibody producing Chinese Hamster Ovary (CHO) cells (Subclone DG44; Life Technologies Cooperation, Carslbad, USA) in comparison to media containing either the corresponding free amino acids or the corresponding L-alanine dipeptides was investigated. For this purpose, the cells were cultivated in a TC-42 media produced by Xell AG, Bielefeld, Germany in which the amino acids provided within the experiments by dipeptides were lacking. The concentrations of these amino acids were adjusted in such a way that, taking into account a complete hydrolysis of the dipeptides into the amino acids, the concentration of all amino acids were the same in all media tested within this experiment.
(§2) Starting from a preparatory culture an initial viable cell density (VCD) of 0.3·10^6 cells/ml was adjusted in shaking flasks by adding the test media. After 2-4 days a part of the cell culture was transferred into a new shaking flask and an initial viable cell density (VCD) of 0.3.10^6 cells/ml was adjusted by adding new test media. This was done two times and then the cell growth was followed by measuring the viable cell density (VCD) for up to 24 days.
Experiment 3: Comparison of the Cell Growths obtained with TC-42 media in which L-valine and L-isoleucine, respectively, are replaced by L-lysyl-L-valine and L-lysyl-L-isoleucine, respectively.
For this experiment a TC-42 media produced by Xell AG, Bielefeld, Germany in which L-lysine, L-valine and L-isoleucine were lacking was used. These amino acids and the dipeptides L-lysyl-L-valine and L-lysyl-L-isoleucine, respectively, were then added to the test media in the concentration listed in table 6.

[3] = Solubility found for Lys-Xxx dipeptides; settings: as hydrochloride or as acetate (footnotes 6, 7)
[4] = tested on: antibody producing Chinese Hamster Ovary (CHO) cells (Subclone DG44); experiment: Experiment 1: cell growth (VCD) in TC-42 media, cysteine/cystine or leucine replaced by dipeptides; type: cell-based; set-up: Viable cell densities (VCD) / maximum cell densities (max. VCD): unit not given here
Description: as §1, with “experiment. […] Experiment 1: Comparison of the Cell Growths Obtained with TC-42 media in which L-cysteine/L-cystine is replaced by bis-L-alanyl-L-cystine, bis-L-prolyl-L-cystine or bis-L-lysyl-L-cystine and L-leucine is replaced by […] For this experiment a TC-42 media produced by Xell AG, Bielefeld, Germany in which […]-cystine and L-leucine were deliberately left out of the initial formulation. […] [table]” for “experiment.”

[5] = tested on: antibody producing Chinese Hamster Ovary (CHO) cells (Subclone DG44); experiment: Experiment 2: cell growth (VCD) in TC-42 media, L-tyrosine replaced by dipeptides; type: cell-based; set-up: key to Viable cell densities (VCD) / maximum cell densities (max VCD): 10^6 cells/ml
Description: as §1, §2
These amino acids and the dipeptides L-alanyl-L-tyrosine dihydrate and L-lysyl-L-tyrosine acetate, respectively, were then added to the test media in the concentration listed in table 4.

N[C@@H](CSSC[C@H](N)C(=O)O)C(=O)O [L-Cystine]
Solubility Xxx [1]: 0.1 g/1000 g solution | solubility [1]: 0.1 g/ltr

CC[C@H](C)[C@H](N)C(=O)O [L-Isoleucine]
Solubility Xxx [1]: 39.6 g/1000 g solution

CC(C)C[C@H](N)C(=O)O [L-Leucine]
Solubility Xxx [1]: 23.7 g/1000 g solution

CC(C)[C@H](N)C(=O)O [L-Valine]
Solubility Xxx [1]: 81.3 g/1000 g solution

CC[C@H](C)[C@H](NC(=O)[C@@H](N)CCCCN)C(=O)O [Lys-Ile, L-Lysyl-L-isoleucine]
maximum cell densities (max VCD) ([2]; TC-42 media of table 6): 10.67 | Viable cell densities (VCD) ([2]; Time 0.0, TC-42 media of table 6): 0.44 | Viable cell densities (VCD) ([2]; Time 2.8, TC-42 media of table 6): 1.78 | Viable cell densities (VCD) ([2]; Time 3.0, TC-42 media of table 6): 0.48 | Viable cell densities (VCD) ([2]; Time 6.8, TC-42 media of table 6): 3.36 | Viable cell densities (VCD) ([2]; Time 6.9, TC-42 media of table 6): 0.39 | Viable cell densities (VCD) ([2]; Time 7.9, TC-42 media of table 6): 0.60 | Viable cell densities (VCD) ([2]; Time 8.8, TC-42 media of table 6): 1.04 | Viable cell densities (VCD) ([2]; Time 9.8, TC-42 media of table 6): 1.73 | Viable cell densities (VCD) ([2]; Time 10.8, TC-42 media of table 6): 2.73 | Viable cell densities (VCD) ([2]; Time 11.8, TC-42 media of table 6): 4.62 | Viable cell densities (VCD) ([2]; Time 12.9, TC-42 media of table 6): 5.77 | Viable cell densities (VCD) ([2]; Time 13.8, TC-42 media of table 6): 7.19 | Viable cell densities (VCD) ([2]; Time 14.8, TC-42 media of table 6): 9.27 | Viable cell densities (VCD) ([2]; Time 15.9, TC-42 media of table 6): 9.45 | Viable cell densities (VCD) ([2]; Time 16.9, TC-42 media of table 6): 9.40 | Viable cell densities (VCD) ([2]; Time 17.9, TC-42 media of table 6): 10.56 | Viable cell densities (VCD) ([2]; Time 18.8, TC-42 media of table 6): 10.67 | Viable cell densities (VCD) ([2]; Time 19.8, TC-42 media of table 6): 9.18 | Viable cell densities (VCD) ([2]; Time 21.0, TC-42 media of table 6): 8.77 | growth curve and maximum cell density compared with reference medium (FIG. 3) ([2]; equimolar amounts): a slower growth and a lower maximum cell density | Solubility Lys-Xxx found [3]: >500 ^7) g/1000 g solution

NCCCC[C@H](N)C(=O)N[C@@H](Cc1ccc(O)cc1)C(=O)O [Lys-Tyr, L-Lysyl-L-tyrosine acetate]
Solubility Lys-Xxx found [3]: >330 ^7) g/1000 g solution

Bis-L-prolyl-L-cystine [Pro2-Cyss, reference compound]
maximum cell densities (max. VCD) ([4]; TC-42 media of table 2): 0.79 | Viable cell densities (VCD) ([4]; Time 0.0, TC-42 media of table 2): 0.31 | Viable cell densities (VCD) ([4]; Time 0.7, TC-42 media of table 2): 0.37 | Viable cell densities (VCD) ([4]; Time 2.0, TC-42 media of table 2): 0.32 | Viable cell densities (VCD) ([4]; Time 2.7, TC-42 media of table 2): 0.21 | Viable cell densities (VCD) ([4]; Time 3.6, TC-42 media of table 2): 0.18 | Viable cell densities (VCD) ([4]; Time 3.7, TC-42 media of table 2): 0.30 | Viable cell densities (VCD) ([4]; Time 4.7, TC-42 media of table 2): 0.24 | Viable cell densities (VCD) ([4]; Time 5.8, TC-42 media of table 2): 0.14 | Viable cell densities (VCD) ([4]; Time 6.7, TC-42 media of table 2): 0.08 | Viable cell densities (VCD) ([4]; Time 6.8, TC-42 media of table 2): 0.32 | Viable cell densities (VCD) ([4]; Time 7.8, TC-42 media of table 2): 0.43 | Viable cell densities (VCD) ([4]; Time 8.7, TC-42 media of table 2): 0.41 | Viable cell densities (VCD) ([4]; Time 9.7, TC-42 media of table 2): 0.34 | Viable cell densities (VCD) ([4]; Time 10.6, TC-42 media of table 2): 0.27 | Viable cell densities (VCD) ([4]; Time 11.6, TC-42 media of table 2): 0.79 | cell growth performance compared with reference medium (FIG. 1) ([4]; same molar amount of cysteine and cystine in the form of dipeptides): almost no growth

L-Alanyl-L-tyrosine × 2H2O [Ala-Tyr]
maximum cell densities (max VCD) ([5]; TC-42 media of table 4): 12.44 | Viable cell densities (VCD) ([5]; Time [d] 0.0, TC-42 media of table 4): 0.38 | Viable cell densities (VCD) ([5]; Time [d] 0.7, TC-42 media of table 4): 0.51 | Viable cell densities (VCD) ([5]; Time [d] 1.7, TC-42 media of table 4): 1.22 | Viable cell densities (VCD) ([5]; Time [d] 2.7, first entry, TC-42 media of table 4): 2.22 | Viable cell densities (VCD) ([5]; Time [d] 2.7, second entry (after transfer into new flask), TC-42 media of table 4): 0.35 | Viable cell densities (VCD) ([5]; Time [d] 4.0, TC-42 media of table 4): 0.77 | Viable cell densities (VCD) ([5]; Time [d] 4.9, TC-42 media of table 4): 1.59 | Viable cell densities (VCD) ([5]; Time [d] 5.7, TC-42 media of table 4): 1.93 | Viable cell densities (VCD) ([5]; Time [d] 6.7, first entry, TC-42 media of table 4): 2.82 | Viable cell densities (VCD) ([5]; Time [d] 6.7, second entry (after transfer into new flask), TC-42 media of table 4): 0.31 | Viable cell densities (VCD) ([5]; Time [d] 7.7, TC-42 media of table 4): 0.48 | Viable cell densities (VCD) ([5]; Time [d] 8.7, TC-42 media of table 4): 1.17 | Viable cell densities (VCD) ([5]; Time [d] 9.7, TC-42 media of table 4): 1.92 | Viable cell densities (VCD) ([5]; Time [d] 11.0, TC-42 media of table 4): 4.11 | Viable cell densities (VCD) ([5]; Time [d] 11.8, TC-42 media of table 4): 6.12 | Viable cell densities (VCD) ([5]; Time [d] 12.7, TC-42 media of table 4): 8.29 | Viable cell densities (VCD) ([5]; Time [d] 13.7, TC-42 media of table 4): 10.49 | Viable cell densities (VCD) ([5]; Time [d] 14.7, TC-42 media of table 4): 12.44 | Viable cell densities (VCD) ([5]; Time [d] 15.7, TC-42 media of table 4): 11.34 | Viable cell densities (VCD) ([5]; Time [d] 16.7, TC-42 media of table 4): 12.42 | Viable cell densities (VCD) ([5]; Time [d] 17.9, TC-42 media of table 4): 11.06 | Viable cell densities (VCD) ([5]; Time [d] 18.9, TC-42 media of table 4): 11.31 | Viable cell densities (VCD) ([5]; Time [d] 19.7, TC-42 media of table 4): 11.20 | Viable cell densities (VCD) ([5]; Time [d] 20.7, TC-42 media of table 4): 11.13 | Viable cell densities (VCD) ([5]; Time [d] 21.7, TC-42 media of table 4): 11.24 | growth curves compared with reference medium (FIG. 2) ([5]; equimolar amounts of tyrosine): no significant difference | maximum cell density compared with reference medium ([5]; equimolar amounts of tyrosine): slightly higher values | Solubility Ala-Xxx ([1]; Degussa product brochure, cystine value WO 2011/133902): 15.3 g/1000 g solution | solubility [1]: 8.7 g/ltr

Reference: patent publication US20190390161A1, “CULTURE MEDIUM COMPRISING OLIGOPEPTIDES” (Evonik Degussa GmbH, priority 2017, published 2019)
